Experimental findings from patent publication US10028938B2, “Antiviral agents and uses thereof” (Griffith University, priority 2014, dated 2018) are described below.

The target in one assay is hPIV-3 HN (Human parainfluenza 3 virus, UniProt P08492). Type of assay: biochemical, hPIV-3 (strain C-243).
In another assay the target is hPIV-1 NI (Human parainfluenza 1 virus, UniProt P16071). Put plainly: biochemical. As to the method:
IC50 values for a number of compounds of the first aspect were determined by standard assay methods previously described in Guillon, P et al, Nature Communications (2014).

Setting [1] is: Table 5, read-out: hPIV-3 NI (IC50 values).

Where two headings read alike, the source gives them in different places.

Chain of hPIV-1 NI (P16071 whole entry): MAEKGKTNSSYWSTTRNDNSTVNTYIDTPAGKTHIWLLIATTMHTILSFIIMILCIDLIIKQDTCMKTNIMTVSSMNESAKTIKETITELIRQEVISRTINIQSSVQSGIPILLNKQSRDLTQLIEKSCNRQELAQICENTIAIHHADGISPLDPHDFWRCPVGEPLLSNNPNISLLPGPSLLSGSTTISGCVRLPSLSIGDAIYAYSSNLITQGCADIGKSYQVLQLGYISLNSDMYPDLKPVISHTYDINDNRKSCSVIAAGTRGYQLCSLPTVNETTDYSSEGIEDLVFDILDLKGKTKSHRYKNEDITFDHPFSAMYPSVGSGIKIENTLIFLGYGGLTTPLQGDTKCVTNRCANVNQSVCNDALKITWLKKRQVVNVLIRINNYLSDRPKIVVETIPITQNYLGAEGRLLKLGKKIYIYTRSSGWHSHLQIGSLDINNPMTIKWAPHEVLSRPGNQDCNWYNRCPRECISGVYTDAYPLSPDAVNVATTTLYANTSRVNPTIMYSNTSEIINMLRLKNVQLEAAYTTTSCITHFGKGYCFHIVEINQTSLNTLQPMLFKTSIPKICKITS
Chain of hPIV-3 HN (P08492 whole entry): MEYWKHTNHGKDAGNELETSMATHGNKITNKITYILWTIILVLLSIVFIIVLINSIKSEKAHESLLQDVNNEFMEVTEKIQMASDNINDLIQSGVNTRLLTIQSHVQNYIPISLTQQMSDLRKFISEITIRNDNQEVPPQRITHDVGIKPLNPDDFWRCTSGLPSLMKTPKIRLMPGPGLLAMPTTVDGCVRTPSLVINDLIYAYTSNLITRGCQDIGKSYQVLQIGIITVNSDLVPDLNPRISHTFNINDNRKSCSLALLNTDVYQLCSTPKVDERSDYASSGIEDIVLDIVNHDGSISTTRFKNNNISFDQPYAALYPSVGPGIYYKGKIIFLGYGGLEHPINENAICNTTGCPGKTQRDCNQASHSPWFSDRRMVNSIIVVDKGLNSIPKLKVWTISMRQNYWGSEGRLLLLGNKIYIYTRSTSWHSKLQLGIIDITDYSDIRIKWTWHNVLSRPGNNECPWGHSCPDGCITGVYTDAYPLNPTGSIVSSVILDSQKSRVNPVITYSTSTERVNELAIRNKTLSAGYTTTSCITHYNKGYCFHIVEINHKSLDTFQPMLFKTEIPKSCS

For `CC(=O)N[C@H]1[C@H]([C@H](O)[C@H](O)CO)OC(C(=O)O)=C[C@@H]1n1cc(CC(C)C)nn1` [IE832-8, Sodium 5-acetamido-2,6-anhydro-3,4,5-trideoxy-4-(4-isobutyl-[1,2,3,]triazol-1-yl)-D-glycero-D-galacto-non-2-enonate], the IC50 stood at 54.4 µM at hPIV-3 HN (setting [1]) and 301 µM on hPIV-1 NI.
The matching figures for `CC(=O)N[C@H]1[C@H]([C@H](O)[C@H](O)CO)OC(C(=O)O)=C[C@@H]1n1cc(-c2ccc(CO)cc2)nn1` [IE832-12, Sodium 5-acetamido-2,6-anhydro-3,4,5-trideoxy-4-(4-(4-hydroxymethylphenyl)-[1,2,3,]triazol-1-yl)-D-glycero-D-galacto-non-2-enonate]: 51.9 µM and 215 µM.
For the molecule `COc1cccc(-c2cn([C@H]3C=C(C(=O)O)O[C@@H]([C@H](O)[C@H](O)CO)[C@@H]3NC(C)=O)nn2)c1` [IE832-20, Sodium 5-acetamido-2,6-anhydro-3,4,5-trideoxy-4-(4-(3-methoxyphenyl)-[1,2,3,]triazol-1-yl)-D-glycero-D-galacto-non-2-enonate], the IC50 was 6.28 µM at hPIV-3 HN (setting [1]) and 193 µM against hPIV-1 NI.
On the same counts, the results for `CCCc1cn([C@H]2C=C(C(=O)O)O[C@@H]([C@H](O)[C@H](O)CO)[C@@H]2NC(C)=O)nn1` [IE832-26, Sodium 5-acetamido-2,6-anhydro-3,4,5-trideoxy-4-(4-propyl-[1,2,3,]triazol-1-yl)-D-glycero-D-galacto-non-2-enonate] are 67.7 µM and 95.5 µM.
On the same counts, the results for `CC(=O)N[C@H]1[C@H]([C@H](O)[C@H](O)CO)OC(C(=O)O)=C[C@@H]1n1cc(-c2cccnc2)nn1` [IE832-27, Sodium 5-acetamido-2,6-anhydro-3,4,5-trideoxy-4-(4-(pyridin-3-yl)-[1,2,3,]triazol-1-yl)-D-glycero-D-galacto-non-2-enonate] are 106 µM and 302 µM.
The matching figures for `COc1ccc(-c2cn([C@H]3C=C(C(=O)O)O[C@@H]([C@H](O)[C@H](O)CO)[C@@H]3NC(C)=O)nn2)cc1` [IE832-31, Sodium 5-acetamido-2,6-anhydro-3,4,5-trideoxy-4-(4-(4-methoxyphenyl)-[1,2,3,]triazol-1-yl)-D-glycero-D-galacto-non-2-enonate]: 22.9 µM and 303 µM.
For `COc1ccccc1-c1cn([C@H]2C=C(C(=O)O)O[C@@H]([C@H](O)[C@H](O)CO)[C@@H]2NC(C)=O)nn1` [IE832-37, Sodium 5-acetamido-2,6-anhydro-3,4,5-trideoxy-4-(4-(2-methoxyphenyl)-[1,2,3,]triazol-1-yl)-D-glycero-D-galacto-non-2-enonate], the IC50 came to 2.4 µM on hPIV-3 HN (setting [1]) and 201 µM on hPIV-1 NI.
For the molecule `CC(=O)N[C@H]1[C@H]([C@H](O)[C@H](O)CO)OC(C(=O)O)=C[C@@H]1n1cnnn1` [IE832-98, Sodium 5-acetamido-2,6-anhydro-3,4,5-trideoxy-4-(1H-tetrazol-1-yl)-D-glycero-D-galacto-non-2-enonate], the IC50 is 27.4 µM on hPIV-3 HN (setting [1]) and 7.44 µM on hPIV-1 NI.
As to `COc1ccccc1-c1cn([C@H]2C=C(C(=O)O)O[C@@H]([C@H](O)[C@H](O)CO)[C@@H]2NC(=O)C(C)C)nn1` [IE889-34, Sodium 2,6-anhydro-3,4,5-trideoxy-5-isobutyramido-4-(4-(2-methoxyphenyl)-[1,2,3,]triazol-1-yl)-D-glycero-D-galacto-non-2-enonate], the IC50 is 3.23 µM at hPIV-3 HN (setting [1]) and 30.3 µM against hPIV-1 NI.
On to `CC(C)C(=O)N[C@H]1[C@H]([C@H](O)[C@H](O)CO)OC(C(=O)O)=C[C@@H]1n1cnnn1` [IE889-42, Sodium 2,6-anhydro-3,4,5-trideoxy-5-isobutyramido-4-(H-tetrazol-1-yl)-D-glycero-D-galacto-non-2-enonate], for which the IC50 turned out to be 5.11 µM at hPIV-3 HN (setting [1]) and 0.159 µM on hPIV-1 NI.
Take `CC(=O)N[C@H]1[C@H]([C@H](O)[C@H](O)CO)OC(C(=O)O)=C[C@@H]1n1cc2ccccc2c1C#N` [IE889-80, Sodium 5-acetamido-2,6-anhydro-4-(1-cyano-2H-isoindol-2-yl)-3,4,5-trideoxy-D-glycero-D-galacto-non-2-enonate]: the concentration for half-maximal inhibition (IC50) at hPIV-3 HN (setting [1]) was found to be 2.68 µM; on hPIV-1 NI, 16.9 µM.
The matching figures for `CC(C)C(=O)N[C@H]1[C@H]([C@H](O)[C@H](O)CO)OC(C(=O)O)=C[C@@H]1n1cc2ccccc2c1C#N` [IE889-99, Sodium 2,6-anhydro-4-(1-cyano-2H-isoindol-2-yl)-3,4,5-trideoxy-5-isobutyramido-D-glycero-D-galacto-non-2-enonate]: 0.599 µM and 6.22 µM.
The matching figures for `CC(C)Cc1cn([C@H]2C=C(C(=O)O)O[C@@H]([C@H](O)[C@H](O)CO)[C@@H]2NC(=O)C(C)C)nn1` [IE927-67, Sodium 2,6-anhydro-3,4,5-trideoxy-4-(4-isobutyl-[1,2,3,]triazol-1-yl)-5-isobutyramido-D-glycero-D-galacto-non-2-enonate]: 114 µM and 47.7 µM.
`N#Cc1c2ccccc2cn1[C@H]1C=C(C(=O)O)O[C@@H]([C@H](O)[C@H](O)CO)[C@@H]1NC(=O)C(F)(F)F` [IE927-99, Sodium 2,6-anhydro-4-(1-cyano-2H-isoindol-2-yl)-3,4,5-trideoxy-5-(2,2,2-trifluoroacetamido)-D-glycero-D-galacto-non-2-enonate]: the IC50 came out at 0.268 µM at hPIV-3 HN (setting [1]); 0.27 µM at hPIV-3 HN (text b135, read-out: IC50 values for hPIV-3 HN); 3.09 µM against hPIV-1 NI.
Regarding `CC(=O)N[C@H]1[C@H]([C@H](O)C(O)CO)OC(C(=O)O)=C[C@@H]1n1nncc1-c1ccccc1` (stereo partly drawn) [IE1172-45, Sodium 5-acetamido-2,6-anhydro-3,4,5-trideoxy-4-(5-phenyl-[1,2,3,]triazol-1-yl)-D-glycero-D-galacto-non-2-enonate], the IC50 was 315 µM on hPIV-3 HN (setting [1]) and more than 1000 µM against hPIV-1 NI.
On the same counts, the results for `CC(=O)N[C@H]1[C@H]([C@H](O)C(O)CO)OC(C(=O)O)=C[C@@H]1n1cc(-c2ccccc2Cl)nn1` (stereo partly drawn) [IE1172-78, Sodium 5-acetamido-2,6-anhydro-4-(4-(2-chlorophenyl)-[1,2,3,]triazol-1-yl)-3,4,5-trideoxy-D-glycero-D-galacto-non-2-enonate] are 2.47 µM and 75.2 µM.
The matching figures for `CC(=O)N[C@H]1[C@H]([C@H](O)C(O)CO)OC(C(=O)O)=C[C@@H]1n1cc(-c2ccccc2C)nn1` (stereo partly drawn) [IE1172-82, Sodium 5-acetamido-2,6-anhydro-3,4,5-trideoxy-4-(4-(2-methylphenyl)-[1,2,3,]triazol-1-yl)-D-glycero-D-galacto-non-2-enonate]: 3.95 µM and 57.2 µM.
On the same counts, the results for `CC(=O)N[C@H]1[C@H]([C@H](O)C(O)CO)OC(C(=O)O)=C[C@@H]1n1cc(-c2ccccc2C(F)(F)F)nn1` (stereo partly drawn) [IE1172-83, Sodium 5-acetamido-2,6-anhydro-3,4,5-trideoxy-4-(4-(2-(trifluoromethyl)phenyl)-[1,2,3,]triazol-1-yl)-D-glycero-D-galacto-non-2-enonate] are 5.61 µM and 73.6 µM.

Broadly, the IC50 is the concentration needed to halve the response being measured.
